Measurements published in article PMC10799085, “A miniaturized mode-of-action profiling platform enables high throughput characterization of the molecular and cellular dynamics of EZH2 inhibition” (Scientific Reports, 2024).
Where two headings read alike, the source gives them in different places.

Tests used:
PRC2/EZH2+/+ [1] = biological target: T1, PRC2/EZH2+/+ (Homo sapiens, UniProt Q15910); experiment: Equilibrium probe competition assay (ePCA), TR-FRET; type: binding
T1 construct: purchased Active Motif

PRC2/EZH2Y641N [2] = biological target: T2, PRC2/EZH2Y641N (Homo sapiens, UniProt Q15910, Y641N); experiment: as above; type: binding
T2 construct: Synthetic cDNA encoding N-terminal 6His-tagged full length EZH2^Y641N; 6His (N); made in house; host or cells: Sf9 insect cells (baculovirus co-infection)

PRC2/EZH2+/+ [3] = biological target: T1, PRC2/EZH2+/+; experiment: Kinetic probe competition assay (kPCA), TR-FRET; type: binding; conditions: for Kd: sheet ePCA&kPCA RT, read-out: Kinetic Kd
Description: (§1) Biotinylated PRC2 complexes and the fluorescent probe used in TR-FRET assays were generated as described in the supplementary methods section.
For measurements at 25, 30 and 37 °C, the temperature control functionality of the instrument was used.
TR-FRET kPCA traces were exported via Microsoft Excel to GraphPad Prism, where non-specific signals were subtracted and kinetic association competition traces were fitted to the Motulsky–Mahan model “kinetics of competitive binding” to obtain kon (k3), koff (k4) and KD parameters.

PRC2/EZH2Y641N [4] = biological target: T2, PRC2/EZH2Y641N; experiment: Kinetic probe competition assay (kPCA), TR-FRET; type: binding
Description: as §1

PRC2/EZH2 Y111L = biological target: T3, PRC2/EZH2 Y111L (Homo sapiens, UniProt Q15910, Y111L); experiment: Scintillation proximity assay (SPA) of H3K27 methylation; type: biochemical
T3 construct: N-terminal 6His-tagged full length EZH2^Y641N, EZH2^Y111L; 6His (N); made in house; host or cells: Sf9 insect cells (baculovirus co-infection)
Description: (§2) Assay-ready plates containing 50 nl of compound dilutions and DMSO controls were filled with 2.5 µL enzyme solution and pre-incubated for 15 min. […] Experiments were also performed without pre-incubation of enzyme and compounds. In this case, the substrate solution was added before enzyme. The reaction was stopped using 1.6 µg/µl streptavidin beads (Perkin Elmer) and 700 µM of SAM (Perkin Elmer). The plates were sealed with transparent foil.
(§3) For equilibrium binding competition (ePCA) and SPA enzyme inhibition assays, raw data import, quality control, normalization, and curve fitting to a 4-parameter logistic equation for IC50 determination were performed using the Genedata Screener® software (Genedata AG). ePCA Ki values were either calculated using the Cheng-Prussof equation[68] or with the GraphPad Prism model “One-site—Fit Ki”.

PRC2/EZH2+/+ [5] = biological target: T1, PRC2/EZH2+/+; experiment: as above; type: biochemical
Description: as §2, §3

PRC2/EZH2Y111D = biological target: T4, PRC2/EZH2Y111D (Homo sapiens, UniProt Q15910, Y111D); experiment: as above; type: biochemical
T4 construct: N-terminal 6His-tagged full length EZH2^Y641N, EZH2^Y111L, EZH2^Y111D; 6His (N); made in house; host or cells: Sf9 insect cells (baculovirus co-infection)
Description: as §2, §3

PRC2/EZH2Y641N [6] = biological target: T2, PRC2/EZH2Y641N; experiment: as above; type: biochemical
Description: as §2, §3

KARPAS-422 cells = experiment: Cellular proliferation assay (AlamarBlue, 144 h); type: cell-based; conditions: Homo sapiens; KARPAS-422 cells, 6-day (144 h), AlamarBlue; read-out: KARPAS (6-day) Anti-proliferation IC50
Description: Cell viability was determined by means of the AlamarBlue® reagent (Thermo Fisher Scientific) following instructions from the manufacturer. […] Anti-proliferative IC50s were calculated by fitting the normalized AlamarBlue® fluorescence values to a 4-parameter logistic equation using the Electronic Notebook (ELN) software from IDBS.

in vitro = in vitro ADME; conditions: human, Caco-2, pH 7.2, 2 µM, 2 h, 37 °C
Description: Cells were kept at 37 °C in a humidified 5% CO2 atmosphere. Before the permeation assay was run, the culture medium was replaced by an FCS-free HEPES carbonate transport buffer (pH 7.2). For assessment of monolayer integrity, the transepithelial electrical resistance was measured. Test compounds were pre-dissolved in DMSO and added either to the apical or basolateral compartment at a final concentration of 2 µM. Before and after 2 h incubation at 37 °C, samples were taken from both compartments. Analysis of compound content was conducted after precipitation with methanol by LC/MS/MS analysis. Reference compounds were analyzed in parallel as assay control. Permeability (Papp) was calculated in the apical to basolateral (A → B) and basolateral to apical (B → A) directions. The efflux ratio basolateral (B) to apical (A) was calculated by dividing Papp B–A by Papp A–B.

[7] = EZH2Y641N (- H3K27me3), sheet ePCA&kPCA RT

- Ki (PRC2/EZH2+/+ [1]; EZH2+/+ (+ H3K27me3), sheet ePCA&kPCA RT, read-out: Equilibrium Ki): 1.14 nM
- Ki (PRC2/EZH2+/+ [1]; EZH2+/+ (- H3K27me3), 5 °C, read-out: Ki (Equilibrium)): 1.92 nM
- Ki (PRC2/EZH2+/+ [1]; EZH2+/+ (- H3K27me3), 15 °C, read-out: Ki (Equilibrium)): 1.6 nM
- Ki (PRC2/EZH2+/+ [1]; EZH2+/+ (- H3K27me3), 30 °C, read-out: Ki (Equilibrium)): 8.06 nM
- Ki (PRC2/EZH2+/+ [1]; EZH2+/+ (- H3K27me3), 37 °C, read-out: Ki (Equilibrium)): 9.47 nM
- Ki (PRC2/EZH2+/+ [1]; EZH2+/+ (- H3K27me3), sheet ePCA&kPCA RT, read-out: Equilibrium Ki): 2.83 nM
- Ki (PRC2/EZH2+/+ [1]; wild type EZH2, absence of H3K27me3 peptide, read-out: Ki): 2.8 ± 0.9 nM
- Ki (PRC2/EZH2+/+ [1]; wild type EZH2, saturating concentrations of H3K27me3 peptide, read-out: Ki): 1.1 ± 0.5 nM
- Ki (PRC2/EZH2Y641N [2]; EZH2Y641N (+ H3K27me3), equilibrium, RT sheet): 6.65 nM
- Ki (PRC2/EZH2Y641N [2]; [7]): 26.5 nM
- Calculated RT (PRC2/EZH2+/+ [3]; EZH2+/+ (+ H3K27me3)): 0.20 h
- Kd (PRC2/EZH2+/+ [3]; EZH2+/+ (+ H3K27me3)): 0.54 nM
- RT (Calculated) (PRC2/EZH2+/+ [3]; EZH2+/+ (- H3K27me3), 5 °C): 0.341 h
- RT (Calculated) (PRC2/EZH2+/+ [3]; EZH2+/+ (- H3K27me3), 15 °C): 0.0983 h
- RT (Calculated) (PRC2/EZH2+/+ [3]; EZH2+/+ (- H3K27me3), 30 °C): 0.0171 h
- RT (Calculated) (PRC2/EZH2+/+ [3]; EZH2+/+ (- H3K27me3), 37 °C): 0.0129 h
- Calculated RT (PRC2/EZH2+/+ [3]; EZH2+/+ (- H3K27me3)): 0.0369 h
- Kd (PRC2/EZH2+/+ [3]; EZH2+/+ (- H3K27me3)): 2.39 nM
- Calculated RT (PRC2/EZH2Y641N [4]; EZH2Y641N (+ H3K27me3)): 0.07 h
- Kd (PRC2/EZH2Y641N [4]; EZH2Y641N (+ H3K27me3), kinetic, RT sheet): 4.56 nM
- Calculated RT (PRC2/EZH2Y641N [4]; EZH2Y641N (- H3K27me3)): 0.0242 h
- Kd (PRC2/EZH2Y641N [4]; [7]): 35 nM
- IC50 (PRC2/EZH2 Y111L; 0' enzyme:inhibitor pre-incubation, read-out: SPA Mean IC50 (M) - 0' enzyme:inhibitor pre-incubation EZH2 Y111L): 3.1e-08 M
- IC50 (PRC2/EZH2 Y111L; 15' enzyme:inhibitor pre-incubation, read-out: SPA Mean IC50 (M) - 15' enzyme:inhibitor pre-incubation EZH2 Y111L): 2.2e-08 M
- IC50 (PRC2/EZH2 Y111L; 60' enzyme:inhibitor pre-incubation, read-out: SPA Mean IC50 (M) - 60' enzyme:inhibitor pre-incubation EZH2 Y111L): 2.5e-08 M
- IC50 (PRC2/EZH2+/+ [5]; 0' enzyme:inhibitor pre-incubation, read-out: SPA Mean IC50 (M) - 0' enzyme:inhibitor pre-incubation EZH2+/+): 5.2e-09 M
- IC50 (PRC2/EZH2+/+ [5]; 15' enzyme:inhibitor pre-incubation, read-out: SPA Mean IC50 (M) - 15' enzyme:inhibitor pre-incubation EZH2+/+): 3.7e-09 M
- IC50 (PRC2/EZH2+/+ [5]; 60' enzyme:inhibitor pre-incubation, read-out: SPA Mean IC50 (M) - 60' enzyme:inhibitor pre-incubation EZH2+/+): 3.1e-09 M
- IC50 (PRC2/EZH2Y111D; 0' enzyme:inhibitor pre-incubation, read-out: SPA Mean IC50 (M) - 0' enzyme:inhibitor pre-incubation EZH2Y111D): 5.9e-06 M
- IC50 (PRC2/EZH2Y111D; 15' enzyme:inhibitor pre-incubation, read-out: SPA Mean IC50 (M) - 15' enzyme:inhibitor pre-incubation EZH2Y111D): 4e-06 M
- IC50 (PRC2/EZH2Y111D; 60' enzyme:inhibitor pre-incubation, read-out: SPA Mean IC50 (M) - 60' enzyme:inhibitor pre-incubation EZH2Y111D): 3.2e-06 M
- IC50 (PRC2/EZH2Y641N [6]; 0' enzyme:inhibitor pre-incubation, read-out: SPA Mean IC50 (M) - 0' enzyme:inhibitor pre-incubation hEZH2Y641N): 3.8e-08 M
- IC50 (PRC2/EZH2Y641N [6]; 15' enzyme:inhibitor pre-incubation, read-out: SPA Mean IC50 (M) - 15' enzyme:inhibitor pre-incubation EZH2Y641N): 3.6e-08 M
- IC50 (PRC2/EZH2Y641N [6]; 60' enzyme:inhibitor pre-incubation, read-out: SPA Mean IC50 (M) - 60' enzyme:inhibitor pre-incubation EZH2Y641N): 3.2e-08 M
- IC50 (KARPAS-422 cells): 630 nM
- Papp A→B at 2 h, 2 µM (in vitro; apical to basolateral, read-out: PK Caco-2 Flux Papp A-B (mean)): 0.314 ×10⁻⁶ cm/s
- Papp B→A at 2 h, 2 µM (in vitro; basolateral to apical, read-out: PK Caco-2 Flux Papp B-A (mean)): 12.6 ×10⁻⁶ cm/s
Structure (SMILES): CCCc1cc(C)[nH]c(=O)c1CNC(=O)c1cc(-c2ccc(N3CCN(C(C)C)CC3)nc2)cc2c1cnn2C(C)C [Compound 9, UNC1999]
